Results published in patent publication US6949553B2, “Aliphatic compounds, their synthesis method, and utilization of the same” (Maruha Corporation, priority 2001, dated 2005).
Values joined by “and” are separate entries in the source; they are usually repeats but may differ in a detail not shown here. Equal entries are not always repeated.

Assays:
[1] = test system: platelets; test: Collagen-induced in vitro platelet aggregation (rabbit PRP, transmittance); type: cell-based; settings: Oryctolagus cuniculus, Platelet, read-out: 50% Inhibition Point for Platelet Aggregation, IC50
Procedure: Collagen-induced in vitro Platelet Aggregation
It was studied whether the compounds of the present invention would inhibit platelet aggregation induced by collagen.
These compounds were each diluted with physiological saline to end concentrations of 1×10^−7M, 3×10^−7M, 1×10^−6M, 3×10^−6M, 1×10^−5M, 3×10^−5M and 1×10^−4M.
Indomethacin was used as a positive control. Indomethacin was dissolved in methanol, and then diluted with physiological saline to end concentrations of 1×10^−6M, 3×10^−6M and 1×10^−5M.
Physiological saline was used as a negative control.
The tube was centrifuged at 900 rpm for 10 minutes at room temperature to separate the supernatant (PRP, platelet rich plasma fraction). The residue was further centrifuged for 15 minutes at 2,500 rpm to obtain the supernatant (PPP, platelet poor plasma fraction).
PPP (platelet poor plasma fraction) was placed in a cuvette, and the cuvette was mounted in a 37° C. incubator for PPP of an aggregometer (Hematracer 240 12ch, manufactured by MCM). Then, 200 μl of PRP (platelet rich plasma fraction) was added into a cuvette, and the cuvette was mounted in a reactor for PRP. With stirring by a magnetic stirrer, the transmittance of PPP was corrected to T650 nm=100%, and the transmittance of PRP was corrected to T650 nm=0%, by automatic adjustment for 30 seconds.
The study substance (20 μl) at a predetermined concentration was added into the cuvette and, 30 seconds later, 20 μl (end concentration 0.2 μg/ml) of collagen (produced by MCM) was added. Subsequent changes in the transmittance were recorded for 5 minutes. When the platelets are aggregated, the transmittance increases. When aggregation peaked, the transmittance T at maximum aggregation was compared with the transmittance T0 of the negative control, and the aggregation inhibition rate was expressed as percentage using the following equation: Aggregation inhibition rate=(1−T/T0)×100
From an aggregation inhibition curve obtained, a regression equation was derived by approximation of the linear type.

[2] = test system: platelets; test: Ex vivo platelet aggregation after intravenous administration; type: in vivo, rat
Procedure: The blood was withdrawn at three points in time, 10 minutes, 30 minutes and 1 hour after administration. Platelets were prepared from the blood samples taken, and they were used to study the aggregation rates when platelet aggregation was induced by 0.3 to 6 μg/ml of collagen. In a control group, the aggregation rates after administration of a solvent (physiological saline) were measured.
It was studied whether the compound of the present invention would suppress ex vivo platelet aggregation dose-dependently.
The blood was withdrawn 60 minutes after administration, and platelets were prepared from the blood. Platelet aggregation was induced by 4 to 7 μg/ml of collagen using the platelets.
The blood was withdrawn 1 hour after intravenous administration, and platelets were prepared from the blood. Platelet aggregation was induced by 1 to 6 μg/ml of collagen using the platelets.

[3] = test system: platelets; test: Ex vivo platelet aggregation after oral administration; type: in vivo, rat; settings: 10, 1 or 0.1 mg/kg oral single dose, rats, blood 2 hours after administration, collagen 2 to 4 μg/ml
Procedure: Compound 2 in a dose of 10, 1 or 0.1 mg/kg was orally administered, as a single dose, to rats with the use of a probe needle. A solvent (physiological saline) was administered as a control.
The blood was withdrawn 2 hours after administration, and platelets were prepared from the blood. Platelet aggregation was induced by 2 to 4 μg/ml of collagen using the platelets. The preparation of platelets and the measurement of the aggregation rate were performed in the same manner as in Test Example 1.

[4] = test system: platelets; test: In vitro platelet aggregation by various inducers, rat platelets; type: cell-based; settings: Rattus norvegicus
Description: Next, the suppression of platelet aggregation by the compounds of the present invention was studied in the same manner as described above with the use of not only collagen, but also arachidonic acid, ADP, thrombin, serotonin, epinephrine and U46619 (pseudo-thromboxane A2 substance) as inducers.
As platelets, platelets prepared from rats and guinea pigs as well as rabbits were also used.
Collagen and ADP were purchased from MCM, and used in accordance with the method of preparation described in the manuals attached to the purchased products. Serotonin, epinephrine and thrombin were purchased from Sigma, and used as solutions in physiological saline for injection (Otsuka Pharmaceutical Factory). Arachidonic acid was purchased from Cayman, and dispersed in physiological saline for injection (Otsuka Pharmaceutical Factory) with the use of an immersion type ultrasonic oscillator (US150, NIPPON SEIKI, tip end diameter ca. 3.5 mm). U46619 (pseudo-thromboxane substance) was purchased from FUNAKOSHI, and dissolved in physiological saline for injection (Otsuka Pharmaceutical Factory) when used.
Collagen (0.1 to 1 μg/ml), arachidonic acid (1 mM), ADP (1 μM), thrombin (1 U/ml), serotonin (100 μM), epinephrine (100 to 200 μM), and U46619 (3 μM) were used.
Indomethacin was used as a positive control for measuring the suppression of platelet aggregation induced by collagen.

CC/C=C\C/C=C\C/C=C\C/C=C\C/C=C\C/C=C\CCC(=O)NCCC1CCCN1C (racemic) [Compound 2, (4Z,7Z,10Z,13Z,16Z,19Z)-N-[2-(1-methylpyrrolidin-2-yl)ethyl]docosahexaenoamide]
IC50 [1]: 1.5 µM | ex vivo IC50 blood concentration as fraction of in vitro IC50 ([2]; 26 nM versus 2.1±0.8 μM in vitro): about 1/80 | ex vivo platelet aggregation (in words) ([2]; 0.0001 mg/kg rat caudal vein, 60 minutes, collagen 4 μg/ml): suppressed compared with the solvent-treated group, although the suppressive action was weak | ex vivo platelet aggregation, onset of efficacy (in words) ([2]; 10 mg/kg caudal vein, male SD rats, blood 10 minutes, 30 minutes and 1 hour after administration, collagen 0.3 to 6 μg/ml): platelet aggregation was suppressed in comparison with the solvent group | ex vivo platelet aggregation (in words) ([2]; 1, 0.1, 0.01 or 0.001 mg/kg rat caudal vein, blood 60 minutes after administration, collagen 4 to 7 μg/ml): platelet aggregation was suppressed in comparison with the solvent-treated group | ex vivo platelet aggregation, dose-dependency (in words) ([2]; FIG. 3, 0.0001 to 1 mg/kg rat caudal vein, 60 minutes): suppressing platelet aggregation ex vivo dose-dependently | estimated blood concentration at the ex vivo IC50 dose ([2]; Platelet, iv, 630 ng/kg, rat blood estimated at about 60 ml/kg, read-out: presumed blood concentration at the ex vivo IC50 dose): 0.026 µM | IC50 for suppression of ex vivo platelet aggregation relative to conventional GPIIb/IIIa receptor antagonists ([2]; rat, intravenous): about 1,000 times | 50% suppression point, IC50, ex vivo platelet aggregation ([2]; rat, intravenous, 60 minutes after administration, collagen 4 μg/ml): 630 ± 36 ng/kg and 630 ng/kg | ex vivo platelet aggregation after oral administration (in words) [3]: potently suppressed | IC50 ([4]; read-out: 50% aggregation inhibition point, collagen-induced aggregation, rat platelets): ~11 µM | IC50 ([4]; read-out: 50% inhibition point, IC50, for in vitro platelet aggregation, inducer ADP (1 μM), rat platelets): > 100 µM | IC50 ([4]; read-out: 50% inhibition point, IC50, for in vitro platelet aggregation, inducer collagen (0.1 to 1 μg/ml), rat platelets): 11 ± 7 µM
